Reference: US20240279214A1, “ALPHA4 BETA7 INEGRIN ANTAGONISTS AND USES THEREOF” (XinThera, Inc., priority 2022, published 2024)

Molecular target: T1, a4b7 integrin interaction with MadCAM-1 (Homo sapiens, UniProt P13612+P26010)
T1 construct: capture of a4b7 integrin expressing cells, RPMI8866; endogenous in cells; host or cells: RPMI8866
T1 sequence (P13612 34-1032): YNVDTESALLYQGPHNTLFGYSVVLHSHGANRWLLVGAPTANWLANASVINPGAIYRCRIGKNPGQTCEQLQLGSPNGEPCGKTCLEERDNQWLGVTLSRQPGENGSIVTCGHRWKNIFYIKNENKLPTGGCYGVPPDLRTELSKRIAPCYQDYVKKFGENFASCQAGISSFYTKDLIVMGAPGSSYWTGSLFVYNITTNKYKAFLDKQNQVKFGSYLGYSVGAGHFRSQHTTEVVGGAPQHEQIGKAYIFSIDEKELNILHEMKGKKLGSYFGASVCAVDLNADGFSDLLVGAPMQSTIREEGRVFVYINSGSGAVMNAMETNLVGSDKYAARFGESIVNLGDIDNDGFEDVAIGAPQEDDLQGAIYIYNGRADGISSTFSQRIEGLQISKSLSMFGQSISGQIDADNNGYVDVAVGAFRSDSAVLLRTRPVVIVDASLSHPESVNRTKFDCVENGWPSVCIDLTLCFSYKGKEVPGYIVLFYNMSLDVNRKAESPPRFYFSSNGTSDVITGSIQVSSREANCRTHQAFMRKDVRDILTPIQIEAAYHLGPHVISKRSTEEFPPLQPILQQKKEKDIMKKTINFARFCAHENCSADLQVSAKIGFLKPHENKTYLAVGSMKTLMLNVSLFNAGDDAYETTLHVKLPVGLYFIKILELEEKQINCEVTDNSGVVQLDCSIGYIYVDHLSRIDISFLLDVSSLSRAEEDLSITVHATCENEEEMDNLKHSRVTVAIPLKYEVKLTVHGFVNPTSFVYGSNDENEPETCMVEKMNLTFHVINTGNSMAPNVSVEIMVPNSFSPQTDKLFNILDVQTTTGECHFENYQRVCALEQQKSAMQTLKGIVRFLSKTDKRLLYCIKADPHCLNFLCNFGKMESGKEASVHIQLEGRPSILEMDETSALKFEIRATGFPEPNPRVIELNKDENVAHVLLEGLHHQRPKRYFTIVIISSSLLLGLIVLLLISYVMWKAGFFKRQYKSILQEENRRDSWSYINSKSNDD
T1 sequence (P26010 20-798): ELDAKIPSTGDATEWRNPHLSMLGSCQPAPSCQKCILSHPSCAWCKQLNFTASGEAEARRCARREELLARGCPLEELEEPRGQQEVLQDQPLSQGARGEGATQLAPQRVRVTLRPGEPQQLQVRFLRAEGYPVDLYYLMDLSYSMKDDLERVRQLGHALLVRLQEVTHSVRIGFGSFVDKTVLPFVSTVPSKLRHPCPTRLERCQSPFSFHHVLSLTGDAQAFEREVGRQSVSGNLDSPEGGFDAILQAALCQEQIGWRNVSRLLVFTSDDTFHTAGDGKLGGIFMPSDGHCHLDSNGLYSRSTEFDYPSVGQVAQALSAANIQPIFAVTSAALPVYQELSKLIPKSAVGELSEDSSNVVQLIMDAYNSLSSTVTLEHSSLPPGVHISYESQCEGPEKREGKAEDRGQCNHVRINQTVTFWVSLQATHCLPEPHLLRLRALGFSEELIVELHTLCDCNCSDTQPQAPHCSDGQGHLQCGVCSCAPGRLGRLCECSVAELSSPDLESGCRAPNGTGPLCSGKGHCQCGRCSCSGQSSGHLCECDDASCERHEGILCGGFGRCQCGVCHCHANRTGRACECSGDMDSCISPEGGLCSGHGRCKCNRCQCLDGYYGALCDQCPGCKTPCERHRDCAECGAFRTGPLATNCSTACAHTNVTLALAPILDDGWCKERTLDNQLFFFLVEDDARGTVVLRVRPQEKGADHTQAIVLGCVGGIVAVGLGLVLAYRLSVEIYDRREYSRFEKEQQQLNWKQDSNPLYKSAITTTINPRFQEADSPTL
Test: a4b7 Cell Capture Assay (RPMI8866 cells on MAdCAM-1 Fc coated plates)
Format: cell-based
Settings: 50% human serum, 1 mM MgCl2, 1 hour incubation, CellTiter-Glo luminescence, read-out: a4B7 cell capture assay RMPI8866-MadCAM EC50
Procedure, shortened: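 RPMI8866 cells (1.0×10^6 cells/mL) in 1 mM MgCl2, 25 mM HEPES, 50% human serum were added to plates coated with human MAdCAM-1–IgG1 Fc (1.0 μg/mL) and exposed to compound (9-point, 0.08–1000 nM, 0.1% DMSO) for 1 h at 37 °C. Bound cells were read by CellTiter-Glo luminescence. IC50 came from 4-parameter fit of normalized % inhibition.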

| Structure (SMILES) | EC50 [nM] |
| --- | --- |
| Cc1cc2cc(c1F)[C@H](CC(=O)O)NC(=O)[C@@H](n1cc(CCCN(C)C)c(C(F)(F)F)cc1=O)c1cc(ccc1F)Oc1cccc(C)c1-2 (relative stereo) [Example 20, [(14R*,17S)-14-{5-[3-(dimethylamino)propyl]-2-oxo-4-(trifluoromethyl)pyridin-1-yl}-12,19-difluoro-3,20-dimethyl-15-oxo-8-oxa-16-azatetracyclo[16.3.1.1^{9,13}.0^{2,7}]tricosa-1(22),2(7),3,5,9,11,13(23),18,20-nonaen-17-yl]acetic acid] | 0.08 |
| Cc1cc2cc(c1F)[C@H](CC(=O)O)NC(=O)[C@@H](n1cc(CCN3CC(F)C3)c(C(F)(F)F)cc1=O)c1cc(ccc1F)Oc1nn(CC3CC3)cc1-2 (single isomer, unassigned) [Example 60] | 380 |
| Cc1cc2cc(c1F)[C@H](CC(=O)O)NC(=O)[C@@H](n1cc(CCN3CC(F)C3)c(C(F)(F)F)cc1=O)c1cc(ccc1F)Oc1cc(N3C4CCC3COC4)cc(C)c1-2 (relative stereo) [Example 56, [(14R*,17S)-12,19-difluoro-14-{5-[2-(3-fluoroazetidin-1-yl)ethyl]-2-oxo-4-(trifluoromethyl)pyridin-1-yl}-3,20-dimethyl-5-{3-oxa-8-azabicyclo[3.2.1]octan-8-yl}-15-oxo-8-oxa-16-azatetracyclo[16.3.1.1^{9,13}.0^{2,7}]tricosa-1(22),2(7),3,5,9,11,13(23),18,20-nonaen-17-yl]acetic acid] | 0.97 |
| Cc1cc2cc(c1F)[C@H](CC(=O)O)NC(=O)[C@@H](n1cc(CCN3CC(F)C3)c(C(F)(F)F)cc1=O)c1cc(ccc1F)Oc1cc(C#N)cc(C)c1-2 (single isomer, unassigned) [Example 46] | 1.6 |
| Cc1cc2cc(c1F)[C@H](CC(=O)O)NC(=O)[C@@H](n1cc(CCN3CC(F)C3)c(C(F)(F)F)cc1=O)c1cc(ccc1F)Oc1ccc(F)cc1-2 (single isomer, unassigned) [Example 52] | 180 |
| Cc1cc2cc(c1F)[C@H](CC(=O)O)NC(=O)[C@H](n1cc(CCN3CC(F)C3)c(C(F)(F)F)cc1=O)c1cccc(c1)Cc1cccc(C)c1-2 (relative stereo) [Example 2, [(14R*,17S)-19-fluoro-14-{5-[2-(3-fluoroazetidin-1-yl)ethyl]-2-oxo-4-(trifluoromethyl)pyridin-1-yl}-3,20-dimethyl-15-oxo-16-azatetracyclo[16.3.1.1^{9,13}.0^{2,7}]tricosa-1(22),2(7),3,5,9,11,13(23),18,20-nonaen-17-yl]acetic acid] | 76 |
| Cc1cccc2c1-c1cc(c(F)c(C(F)(F)F)c1)[C@H](CC(=O)O)NC(=O)[C@@H](n1cc(CCN3CC(F)C3)c(C(F)(F)F)cc1=O)c1cc(cc(C(F)(F)F)c1)O2 (relative stereo) [Example 14, [(14R*,17S)-19-fluoro-14-{5-[2-(3-fluoroazetidin-1-yl)ethyl]-2-oxo-4-(trifluoromethyl)pyridin-1-yl}-3-methyl-15-oxo-11,20-bis(trifluoromethyl)-8-oxa-16-azatetracyclo[16.3.1.1^{9,13}.0^{2,7}]tricosa-1(22),2(7),3,5,9,11,13(23),18,20-nonaen-17-yl]acetic acid] | 38 |
| Cc1cc2cc(c1F)[C@H](CC(=O)O)NC(=O)[C@@H](n1cc(CCN3CC(F)C3)c(C(F)(F)F)cc1=O)c1cc(ccc1F)Oc1cc(C(C)(C)O)cc(C)c1-2 (single isomer, unassigned) [Example 48] | 0.5 |
| Cc1cc(C)c2c(c1)Oc1ccc(F)c(c1)[C@H](n1cc(CCN3CC(F)C3)c(C(F)(F)F)cc1=O)C(=O)N[C@@H](CC(=O)O)c1cc-2cc(C)c1F (relative stereo) [Example 27, [(14R*,17S)-12,19-difluoro-14-{5-[2-(3-fluoroazetidin-1-yl)ethyl]-2-oxo-4-(trifluoromethyl)pyridin-1-yl}-3,5,20-trimethyl-15-oxo-8-oxa-16-azatetracyclo[16.3.1.1^{9,13}.0^{2,7}]tricosa-1(22),2(7),3,5,9,11,13(23),18,20-nonaen-17-yl]acetic acid] | 3.7 |
| Cc1cc2cc(c1F)[C@H](CC(=O)O)NC(=O)[C@@H](n1cc(CCN3CCC(F)(F)CC3)c(C(F)(F)F)cc1=O)c1cc(ccc1F)Oc1cccc(C)c1-2 (single isomer, unassigned) [Example 63] | 10 |
| Cc1cc2cc(c1F)[C@H](CC(=O)O)NC(=O)[C@@H](n1cc(CCN3CC(F)C3)c(C(F)(F)F)cc1=O)c1cc(Cl)cc(c1)Oc1ccc(F)c(C)c1-2 (relative stereo) [Example 34, [(14R*,17S)-11-chloro-4,19-difluoro-14-{5-[2-(3-fluoroazetidin-1-yl)ethyl]-2-oxo-4-(trifluoromethyl)pyridin-1-yl}-3,20-dimethyl-15-oxo-8-oxa-16-azatetracyclo[16.3.1.1^{9,13}.0^{2,7}]tricosa-1(22),2(7),3,5,9,11,13(23),18,20-nonaen-17-yl]acetic acid] | 23 |
| Cc1ccc2c(c1C)-c1cc(C)c(F)c(c1)[C@H](CC(=O)O)NC(=O)[C@@H](n1cc(CCN3CC(F)C3)c(C(F)(F)F)cc1=O)c1cc(ccc1F)O2 (relative stereo) [Example 33, [(14R*,17S)-12,19-difluoro-14-{5-[2-(3-fluoroazetidin-1-yl)ethyl]-2-oxo-4-(trifluoromethyl)pyridin-1-yl}-3,4,20-trimethyl-15-oxo-8-oxa-16-azatetracyclo[16.3.1.1^{9,13}.0^{2,7}]tricosa-1(22),2(7),3,5,9,11,13(23),18,20-nonaen-17-yl]acetic acid] | 50 |
| Cc1cccc2c1-c1cc(c(C)s1)[C@H](CC(=O)O)NC(=O)[C@@H](n1cc(CCN3CC(F)C3)c(C(F)(F)F)cc1=O)c1cc(ccc1F)CO2 (single isomer, unassigned) [Example 75] | > 100 |
| Cc1cc(C)c2c(c1)Oc1cccc(c1)[C@H](n1cc(CCN3CC(F)C3)c(C(F)(F)F)cc1=O)C(=O)N[C@@H](CC(=O)O)c1cc-2cc(C(F)(F)F)c1F (relative stereo) [Example 4, [(14R*,17S)-19-fluoro-14-{5-[2-(3-fluoroazetidin-1-yl)ethyl]-2-oxo-4-(trifluoromethyl)pyridin-1-yl}-3,5-dimethyl-15-oxo-20-(trifluoromethyl)-8-oxa-16-azatetracyclo[16.3.1.1^{9,13}.0^{2,7}]tricosa-1(21),2(7),3,5,9,11,13(23),18(22),19-nonaen-17-yl]acetic acid] | 440 |
| Cc1cc2cc(c1F)[C@H](CC(=O)O)NC(=O)[C@@H](n1cc(CCN3CC(F)(F)C3)c(C(F)(F)F)cc1=O)c1cc(ccc1F)Oc1cccc(C)c1-2 (single isomer, unassigned) [Example 45] | 1.8 |
